Legend:
[1] = High-throughput RLM stability; type: in vitro ADME; settings: rat, rat liver microsomes, pH 7.4
[2] = molecular target: T1, hALDH1A1 (Homo sapiens, UniProt P00352); test: biochemical
T1 sequence (P00352 1-501): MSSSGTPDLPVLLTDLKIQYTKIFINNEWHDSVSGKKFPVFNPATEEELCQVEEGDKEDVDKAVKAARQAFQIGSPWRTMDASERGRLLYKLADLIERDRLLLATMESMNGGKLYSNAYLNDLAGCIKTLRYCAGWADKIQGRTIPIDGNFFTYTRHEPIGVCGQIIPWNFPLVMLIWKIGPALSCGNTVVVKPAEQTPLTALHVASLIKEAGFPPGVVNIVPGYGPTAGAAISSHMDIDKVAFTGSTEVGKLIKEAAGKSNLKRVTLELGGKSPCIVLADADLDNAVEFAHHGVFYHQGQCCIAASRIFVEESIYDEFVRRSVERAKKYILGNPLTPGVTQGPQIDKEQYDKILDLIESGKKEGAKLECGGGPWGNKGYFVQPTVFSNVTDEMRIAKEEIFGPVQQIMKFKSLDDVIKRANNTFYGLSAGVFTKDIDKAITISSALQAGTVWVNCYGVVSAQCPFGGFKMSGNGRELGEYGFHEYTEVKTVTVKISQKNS

[3] = molecular target: T1, hALDH1A1; test: Primary qHTS against hALDH1A1; type: biochemical
[4] = molecular target: T2, human ALDH2 (Homo sapiens, UniProt P05091); test: ALDH enzymatic assay, ALDH2; type: biochemical
T2 sequence (P05091 18-517): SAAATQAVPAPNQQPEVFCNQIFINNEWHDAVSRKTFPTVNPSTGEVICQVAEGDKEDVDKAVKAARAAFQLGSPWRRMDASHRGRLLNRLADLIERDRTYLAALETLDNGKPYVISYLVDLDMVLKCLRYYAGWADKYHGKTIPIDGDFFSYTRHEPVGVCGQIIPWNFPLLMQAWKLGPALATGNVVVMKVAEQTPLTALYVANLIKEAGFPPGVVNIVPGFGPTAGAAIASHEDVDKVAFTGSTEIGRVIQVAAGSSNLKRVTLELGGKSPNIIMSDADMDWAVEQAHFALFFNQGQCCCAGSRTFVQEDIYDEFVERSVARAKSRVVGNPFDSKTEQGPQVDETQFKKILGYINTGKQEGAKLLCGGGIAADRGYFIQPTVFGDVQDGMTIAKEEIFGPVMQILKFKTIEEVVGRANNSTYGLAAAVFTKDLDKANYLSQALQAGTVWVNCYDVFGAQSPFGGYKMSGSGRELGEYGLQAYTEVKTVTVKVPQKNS

[5] = molecular target: T3, human ALDH1B1 (Homo sapiens, UniProt P30837); test: biochemical
T3 sequence (P30837 18-517): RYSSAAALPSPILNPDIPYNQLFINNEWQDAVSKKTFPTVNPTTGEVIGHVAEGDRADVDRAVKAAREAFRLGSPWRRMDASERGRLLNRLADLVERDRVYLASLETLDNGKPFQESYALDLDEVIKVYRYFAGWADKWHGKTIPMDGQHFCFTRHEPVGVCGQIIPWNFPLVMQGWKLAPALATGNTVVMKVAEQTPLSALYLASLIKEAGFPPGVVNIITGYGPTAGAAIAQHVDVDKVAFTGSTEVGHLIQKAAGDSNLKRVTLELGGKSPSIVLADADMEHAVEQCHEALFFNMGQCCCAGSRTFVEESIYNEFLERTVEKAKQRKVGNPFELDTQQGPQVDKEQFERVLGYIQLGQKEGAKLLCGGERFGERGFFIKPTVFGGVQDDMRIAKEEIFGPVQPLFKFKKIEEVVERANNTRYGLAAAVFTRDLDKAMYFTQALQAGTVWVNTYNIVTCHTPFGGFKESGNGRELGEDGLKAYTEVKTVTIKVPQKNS

[6] = physchem; settings: aqueous medium at pH 7.4, pH 7.4, aqueous buffer, kinetic from dmso stock
[7] = system: ALDH2; settings: read-out: ALDH2 inhibition; cited from earlier work
[8] = system: cocaine-seeking behavior; settings: cited from earlier work
[9] = Caco-2 permeability; type: in vitro ADME; settings: human
[10] = Plasma protein binding; type: in vitro ADME
[11] = system: more than 450 human kinases; test: DiscoveRx KINOMEscan off-target kinase profiling; type: binding; settings: 10 µM, hit = inhibition of ≥55%
[12] = Multipoint rat liver microsomal stability; type: in vitro ADME
[13] = microsomes
[14] = CD1 mouse liver microsomal stability; type: in vitro ADME; settings: mouse liver microsomes
[15] = In vitro stability in CD1 mouse plasma; type: in vitro ADME
[16] = system: 168 GPCRs covering 60 receptor families; test: gpcrMAX panel profiling; type: cell-based; settings: agonist and antagonist mode
[17] = Pharmacokinetics in CD1 mice; type: in vivo; settings: CD1, mouse

Q: Which half-life at 1 µM [1] does the source give for Cn1c(=O)c2c(nc(OC3CCN(C(=O)C4CC4)CC3)n2CCc2ccccc2)n(C)c1=O [Compound 39, 8-((1-(cyclopropanecarbonyl)piperidin-4-yl)oxy)-1,3-dimethyl-7-phenethyl-1H-purine-2,6(3H,7H)-dione] here?
A: Its half-life at 1 µM is 14 min.

Q: And the IC50 [2]?
A: The IC50 was 629 ± 179 nM.

Q: For Cc1cccc(Cn2c(OC3CCN(c4nccc(C)n4)CC3)nc3c2c(=O)n(C)c(=O)n3C)c1 [Compound 19, 1,3-dimethyl-7-(3-methylbenzyl)-8-((1-(4-methylpyrimidin-2-yl)-piperidin-4-yl)oxy)-1H-purine-2,6(3H,7H)-dione], which half-life at 1 µM [1] is on record?
A: The half-life at 1 µM was 1 min.

Q: What about the IC50 [2] of the same molecule?
A: Its IC50 is 19200 ± 3300 nM.

Q: Which half-life at 1 µM [1] does the source give for Cn1c(=O)c2c(nc(OC3CCN(C(=O)C4CC4)CC3)n2CCC2CCCCC2)n(C)c1=O [Compound 54, 7-(2-cyclohexylethyl)-8-((1-(cyclopropanecarbonyl)piperidin-4-yl)oxy)-1,3-dimethyl-1H-purine-2,6(3H,7H)-dione] here?
A: The half-life at 1 µM was 1 min.

Q: What about the IC50 [2] of the same molecule?
A: Its IC50 is 30 ± 12 nM.

Q: What does the source list for CCOC(=O)N1CCN(Cc2nc3c(c(=O)n(C)c(=O)n3C)n2Cc2cccc(C)c2)CC1 [Compound 5, ethyl 4-((1,3-dimethyl-7-(3-methylbenzyl)-2,6-dioxo-2,3,6,7-tetrahydro-1H-purin-8-yl)methyl)piperazine-1-carboxylate]?
A: IC50 [3]: 84 nM; IC50 [4]: 2.4 µM; IC50 [5]: > 57 µM; half-life at 1 µM [1]: 5 min; IC50 [2]: 40 ± 5 nM; solubility [6]: > 62 µg/mL

Q: Which IC50 [4] does the source give for Cc1cccc(Cn2c(OC3CCN(C(=O)C4CC4)CC3)nc3c2c(=O)n(C)c(=O)n3C)c1 [Compound 34, 8-((1-(cyclopropanecarbonyl)piperidin-4-yl)oxy)-1,3-dimethyl-7-(3-methylbenzyl)-1H-purine-2,6(3H,7H)-dione] here?
A: Its IC50 is 15.3 µM.

Q: What about the IC50 [5] of the same molecule?
A: Its IC50 is greater than 57 µM.

Q: What about the half-life at 1 µM [1] of the same molecule?
A: The half-life at 1 µM was 4 min.

Q: What about the IC50 [2] of the same molecule?
A: Its IC50 is 84 ± 14 nM.

Q: For CNC(=O)c1ccc(Oc2nc3c(c(=O)n(C)c(=O)n3C)n2Cc2cccc(C)c2)cc1 [Compound 12, 4-((1,3-dimethyl-7-(3-methylbenzyl)-2,6-dioxo-2,3,6,7-tetrahydro-1H-purin-8-yl)oxy)-N-methylbenzamide], which IC50 [4] is on record?
A: The IC50 was 6.1 µM.

Q: And the IC50 [5]?
A: Its IC50 is greater than 57 µM.

Q: What about the half-life at 1 µM [1] of the same molecule?
A: The half-life at 1 µM was 8 min.

Q: And the IC50 [2]?
A: The IC50 was 57 nM.

Q: What about the solubility [6] of the same molecule?
A: The solubility was less than 1 µg/mL.

Q: Which IC50 [7] does the source give for CS(=O)(=O)Nc1ccc(-c2coc3cc(OCc4cccc(C(=O)O)c4)ccc3c2=O)cc1 [Compound 1] here?
A: The IC50 was 29 nM.

Q: And the “reduction of cocaine-seeking behavior” value [8]?
A: Its value is “demonstrated activity in the reduction of cocaine-seeking behavior”.

Q: Which results are given for Cn1c(=O)c2[nH]c(OC3CCN(C(=O)C4CC4)CC3)nc2n(C)c1=O [Compound 22, 8-((1-(cyclopropanecarbonyl)piperidin-4-yl)oxy)-1,3-dimethyl-1H-purine-2,6(3H,7H)-dione]?
A: half-life at 1 µM [1]: > 30 min; IC50 [2]: 25100 ± 5900 nM

Q: What does the source list for Cc1cccc(Cn2c(OC3CCNCC3)nc3c2c(=O)n(C)c(=O)n3C)c1 [Compound 14, 1,3-dimethyl-7-(3-methylbenzyl)-8-(piperidin-4-yloxy)-1H-purine-2,6(3H,7H)-dione]?
A: half-life at 1 µM [1]: 21 min; IC50 [2]: 13700 ± 4900 nM

Q: With CCOC(=O)N1CCN(c2nc3c(c(=O)n(C)c(=O)n3C)n2Cc2cccc(C)c2)CC1 [Compound 11, Ethyl 4-(1,3-Dimethyl-7-(3-methylbenzyl)-2,6-dioxo-2,3,6,7-tetrahydro-1H-purin-8-yl)piperazine-1-carboxylate] as the molecule, how does the half-life at 1 µM [1] read?
A: Its half-life at 1 µM is 2 min.

Q: What about the IC50 [2] of the same molecule?
A: The IC50 was 570 ± 156 nM.

Q: For CC(C)CCn1c(CN2CCN(C(=O)C3CC3)CC2)nc2c1c(=O)n(C)c(=O)n2C [Compound 64, 8-((4-(cyclopropanecarbonyl)piperazin-1-yl)methyl)-7-isopentyl-1,3-dimethyl-1H-purine-2,6(3H,7H)-dione], which Papp A→B [9] is on record?
A: The Papp A→B was 19.3 ×10⁻⁶ cm/s.

Q: And the Papp B→A [9]?
A: Its Papp B→A is 19.6 ×10⁻⁶ cm/s.

Q: And the plasma protein binding [10]?
A: Its plasma protein binding is 68.6 % bound.

Q: And the IC50 [5]?
A: The IC50 was greater than 57 µM.

Q: And the “off-target kinase activity (KINOMEscan)” value [11]?
A: The value was “no significant hits”.

Q: What about the half-life at 1 µM [1] of the same molecule?
A: The half-life at 1 µM was greater than 30 min.

Q: And the “multipoint rat liver microsomal stability” value [12]?
A: The value was 84 min.

Q: What about the “human liver microsomal stability (HLM)” value [13] of the same molecule?
A: Its value is greater than 120 min.

Q: And the half-life [14]?
A: The half-life was 17 min.

Q: What about the “in vitro stability in CD1 mouse plasma” value [15] of the same molecule?
A: Its value is greater than 60 min.

Q: What about the gpcrMAX off-target activity [16] of the same molecule?
A: The gpcrMAX off-target activity was “very little activity in either agonist or antagonist mode”.

Q: What about the AUC(0-t) ([17]; brain, po, 10 mg/kg) of the same molecule?
A: The AUC(0-t) was 261 ng·h/mL.

Q: And the Cmax ([17]; brain, po, 10 mg/kg)?
A: Its Cmax is 1130 ng/mL.

Q: What about the half-life ([17]; brain, po, 10 mg/kg) of the same molecule?
A: Its half-life is 24 min.

Q: What about the AUC(0-t) ([17]; liver, po, 10 mg/kg) of the same molecule?
A: Its AUC(0-t) is 1880 ng·h/mL.

Q: And the Cmax ([17]; liver, po, 10 mg/kg)?
A: Its Cmax is 2690 ng/mL.

Q: What about the half-life ([17]; liver, po, 10 mg/kg) of the same molecule?
A: Its half-life is 24 min.

Q: What about the half-life ([17]; plasma, intravenous, oral, intraperitoneal) of the same molecule?
A: Its half-life is less than 60 min.

Q: What about the AUC(0-t) ([17]; plasma, ip, 30 mg/kg) of the same molecule?
A: Its AUC(0-t) is 5670 ng·h/mL.

Q: What about the Cmax ([17]; plasma, ip, 30 mg/kg) of the same molecule?
A: The Cmax was 8080 ng/mL.

Q: And the bioavailability ([17]; plasma, ip, 30 mg/kg)?
A: The bioavailability was 100%.

Q: What about the half-life ([17]; plasma, ip, 30 mg/kg) of the same molecule?
A: The half-life was 42 min.

Q: And the AUC(0-t) ([17]; plasma, iv, 2 mg/kg)?
A: The AUC(0-t) was 332 ng·h/mL.

Q: What about the C0 ([17]; plasma, iv, 2 mg/kg) of the same molecule?
A: Its C0 is 2070 ng/mL.

Q: And the Vd ([17]; plasma, iv, 2 mg/kg)?
A: Its Vd is 1.8 L/kg.

Q: And the clearance ([17]; plasma, iv, 2 mg/kg)?
A: Its clearance is 98 mL/min/kg.

Q: What about the half-life ([17]; plasma, iv, 2 mg/kg) of the same molecule?
A: Its half-life is 30 min.

Q: And the AUC(0-t) ([17]; plasma, po, 10 mg/kg)?
A: Its AUC(0-t) is 484 ng·h/mL.

Q: What about the Cmax ([17]; plasma, po, 10 mg/kg) of the same molecule?
A: Its Cmax is 696 ng/mL.

Q: What about the bioavailability ([17]; plasma, po, 10 mg/kg) of the same molecule?
A: The bioavailability was 29%.

Q: And the half-life ([17]; plasma, po, 10 mg/kg)?
A: The half-life was 24 min.

Q: For Cn1c(=O)c2c(nc(OC3CCN(C(=O)C4CC4)CC3)n2Cc2ccccc2)n(C)c1=O [Compound 21, 7-benzyl-8-((1-(cyclopropanecarbonyl)piperidin-4-yl)oxy)-1,3-dimethyl-1H-purine-2,6(3H,7H)-dione], which half-life at 1 µM [1] is on record?
A: The half-life at 1 µM was greater than 30 min.

Q: And the IC50 [2]?
A: Its IC50 is 214 ± 28 nM.

From article PMC5185321 (Journal of medicinal chemistry, 2015)
